Earlier results on 1 molecule are cited in US20080076825A1, “Novel Crystalline Forms of Entacapone and Production Thereof” (priority 2003, published 2008).

For data set [1] the following is noted: commercially available entacapone.
The test system of data set [2] is Parkinson's disease. The conditions noted are these: in combination with levodopa and a decarboxylase inhibitor; by lengthening the dosage interval and/or reducing the single dose.

What is called bioavailability is the share of a dose that reaches the circulation, judged against a reference dose that is usually intravenous. Turning to `CCN(CC)C(=O)/C(C#N)=C/c1cc(O)c(O)c([N+](=O)[O-])c1` [entacapone, (E)-N,N-diethyl-2-cyano-3-(3,4-dihydroxy-5-nitrophenyl)acrylamide], the bioavailability in data set [1] is listed as 35%. Moreover, the “reduction of the amount of L-dopa to be administered” value in data set [2] was 10-30%.
